# Results taken from patent publication US11298412B2, “Sphingoid compounds for prophylaxis and/or therapy of coronaviridae infection” (priority 2020, dated 2022).
# Entries after “also recorded” stand apart in the source; their conditions may differ.
# Assays:
# [1] = tested on: lymphocytic choriomeningitis virus (LCMV); assay type: cell-based, LCMV strain WE
# [2] = tested on: rhinovirus strain RV2 (minor strain); experiment: Rhinovirus RV2 infection of Hela cells, Trypan Blue cell death; assay type: cell-based; settings: 10 μM and 20 μM, added 10 min before or 60 min or 240 min after infection, 4 days
# [3] = Surface sphingosine in mouse nasal mucosa after intranasal application, in situ sphingosine kinase assay; assay type: in vivo; settings: wild-type mice; 10 μL of 10 μM or 100 μM into the nostrils; 1, 4 and 8 hrs; without washing
# Protocol: Sphingosine (SPH) was applied into the nose of wild-type mice and the concentration of sphingosine on the epithelial cell surface was determined after 1, 4 and 8 hrs (a.i.: after injection of sphingosine). To this end, 10 μL of a 10 μM or a 100 μM sphingosine solution was applied into the nostrils of wild-type mice. Controls received the solvent, i.e. octylglucopyranoside at the same concentration used when sphingosine was applied, or were left untreated. Mice were slightly and very briefly anesthetized with ether. For the intranasal application we used a blunt-end 30 g needle that was covered with a thin plastic film. The blunt-ended needle was inserted into the nostrils approximately 2 mm. Mice were sacrificed after the indicated time, the nasal bone was removed, placed on a 30° C. pre-warmed plastic plate and an area of 2 mm×2 mm was immediately incubated with 0.001 units of sphingosine kinase 1 (#6068-SK-010, R&D) in 4 μl of 150 mM sodium acetate (pH 7.4), 1 μM ATP, and 10 μCi [^32P]γATP/sample. Controls were incubated with the same buffer without sphingosine kinase or were left untreated. […] The TLC plates were analyzed with a phosphoimager. Surface sphingosine levels were determined with a standard curve of C18-sphingosine. […]
# [4] = tested on: epithelial cells of the nose; experiment: Toxicity of intranasal sphingosine on nasal epithelial cells of mice, Trypan Blue; assay type: in vivo; settings: wild-type mice; 10 μL of 10 μM or 100 μM intranasal; 8 hours or 24 hours
# Protocol: Sphingosine was applied into the nose of wild-type mice as in 3.2. 10 μL of a 10 μM or a 100 μM sphingosine (SPH) solution was administered into the nostrils of wild-type mice. Controls received the solvent, i.e. octylglucopyranoside at the same concentration used when sphingosine was applied, or were left untreated. Mice were anesthetized prior to application of sphingosine. Mice were sacrificed after 8 hours or 24 hours, the nasal bone was removed and incubated in Trypsin solution for 10 min to release and isolate epithelial cells. Cells were washed twice in H/S (20 mM HEPES, 132 mM NaCl, 5 mM KCl, 1 mM CaCl2), 0.7 mM MgCl2, 0.8 mM MgSO4, pH 7.4), stained with Trypan Blue (0.2% final concentration) and dead cells were counted in aliquots of 500 cells. Given is the percentage of dead cells±SD from 4 independent experiments each; *p<0.05, ANOVA.
# [5] = tested on: rhinovirus strain 2 (RV2); experiment: Intranasal RV2 infection of wild-type mice, Hela cell death bioassay of nasal bone; assay type: in vivo; settings: 10 μL of 100 μM intranasal 10 min before or 1, 4, 8 hrs after infection, 10^3 PFU, sacrificed after 24 hrs
# Protocol: Mice were infected with 10^3 PFU rhinovirus strain 2 (RV2) in 10 μL PBS. The virus was applied directly into the nose using a blunt ended, plastic coated 30 g needle, that was inserted into the nose approximately 2 mm. Sphingosine (SPH) was applied into the nose of the wild-type mice at a concentration of 100 μM solution in PBS in a volume of 10 μL. Sphingosine was applied either 10 min prior to rhinovirus infection (b.i.) or 1 hr, 4 hrs and 8 hrs after the infection (a.i.). Controls received the solvent, i.e. octylglucopyranoside (OGP) at the same concentration than used when sphingosine was applied, or were left untreated, but infected. Solutions were applied as in 3.2. Mice were sacrificed after 24 hrs, the nasal bone was removed and incubated for 4 days with Hela cells in a 24 well plate. If the nasal epithelial cells are infected, rhinovirus will be released due to the cytopathic effect of the virus and the in vivo infection can then be determined and quantified by measuring cell death of Hela cells as a bioassay. To this end, dead cells were collected, adherent cells were trypsinized, the fractions were combined, washed twice in H/S (20 mM HEPES, 132 mM NaCl, 5 mM KCl, 1 mM CaCl2), 0.7 mM MgCl2, 0.8 mM MgSO4, pH 7.4), stained with Trypan Blue (0.2% final concentration) and dead cells were counted in aliquots of 500 cells as above. […]
# [6] = tested on: rhinovirus 2 (RV2); experiment: RV2 infection of freshly isolated human epithelial cells, Hela cytotoxicity readout; assay type: cell-based; settings: 10 μM or 20 μM, 24 hrs
# Protocol: (§1) 10^4 PFU of Rhinovirus 2 or 14 (RV2, RV14) were incubated with freshly isolated human epithelial cells for 24 hrs in the presence of 10 μM or 20 μM sphingosine (SPH) or the corresponding concentration of the solvent octylglucopyranoside (OGP), the cells were pelleted, supernatants completely removed, the cell pellets resuspended in PBS and added to Hela cells. Cells were incubated for 3 days and cytotoxicity as measurement for virus titers was determined. Shown is the mean±SD, n=4, *p<0.001 ANOVA.
# [7] = tested on: rhinovirus 14 (RV14); experiment: RV14 infection of freshly isolated human epithelial cells, Hela cytotoxicity readout; assay type: cell-based; settings: 10 μM or 20 μM, 24 hrs
# Protocol: as §1
# [8] = tested on: pp-VSV-SARS-CoV-2 spike; assay type: cell-based
# [9] = biological target: T1, receptor-binding domain of spike protein / ACE2 (Homo sapiens, UniProt Q9BYF1); experiment: Binding of Fc-ACE2 to RBD-spike immobilized on Ni-agarose, western blot; settings: RBD immobilized on Ni2+-agarose; Fc-ACE2 with 1 μM or 2 μM sphingosine
# T1 construct: purchased Abcam (Fc-ACE2); Sino Biologicals (RBD-spike) ab273687 (Fc-ACE2); MA FE2702B, #40150-R007 (as printed for RBD-spike)
# [10] = biological target: pp-VSV-SARS-CoV-2 / recombinant ACE2 (Homo sapiens, UniProt Q9BYF1); experiment: Binding of pp-VSV-SARS-CoV-2 to immobilized recombinant ACE2, Vero infection with supernatant; settings: 1 or 2 μM sphingosine; immobilized Fc-ACE2
# [11] = tested on: pp-VSV-SARS-CoV-2; experiment: Adhesion of pp-VSV-SARS-CoV-2 on Vero cells, flow cytometry with anti-spike S1; assay type: cell-based; settings: 20 minutes infection in presence of lipid
# Sequence of pp-VSV-SARS-CoV-2 / recombinant ACE2 (Q9BYF1 18-740): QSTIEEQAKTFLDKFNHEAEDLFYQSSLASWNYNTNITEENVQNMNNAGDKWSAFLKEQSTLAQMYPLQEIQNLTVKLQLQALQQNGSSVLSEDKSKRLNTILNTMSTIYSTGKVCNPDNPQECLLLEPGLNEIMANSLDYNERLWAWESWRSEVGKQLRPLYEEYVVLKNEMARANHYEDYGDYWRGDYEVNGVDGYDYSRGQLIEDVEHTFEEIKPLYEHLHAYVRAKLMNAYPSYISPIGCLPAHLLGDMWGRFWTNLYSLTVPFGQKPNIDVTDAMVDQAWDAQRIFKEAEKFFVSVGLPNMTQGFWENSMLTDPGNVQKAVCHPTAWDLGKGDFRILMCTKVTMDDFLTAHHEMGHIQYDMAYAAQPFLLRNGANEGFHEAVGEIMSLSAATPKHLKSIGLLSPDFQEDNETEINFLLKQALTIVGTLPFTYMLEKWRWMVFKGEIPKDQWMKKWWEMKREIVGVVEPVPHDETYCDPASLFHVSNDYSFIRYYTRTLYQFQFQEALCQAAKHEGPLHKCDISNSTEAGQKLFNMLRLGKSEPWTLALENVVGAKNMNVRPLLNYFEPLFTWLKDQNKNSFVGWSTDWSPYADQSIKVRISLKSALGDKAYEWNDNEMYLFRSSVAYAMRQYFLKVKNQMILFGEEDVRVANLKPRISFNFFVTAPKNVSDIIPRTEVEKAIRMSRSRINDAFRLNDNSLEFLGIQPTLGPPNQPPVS
# T1 sequence (Q9BYF1 18-740): as above
compound,measurement,setting,value
"CCCCCCCCCCCCC/C=C/[C@@H](O)[C@@H](N)CO [sphingosine, (2S,3R,4E)-2-amino-4-octadecene-1,3-diol]",propagation of LCMV (infectious LCMV particles in the supernatant),[1],reduced propagation of LCMV; also recorded: inhibits the propagation of LCMV
same,infection with RV2 (percentage of dead cells),[2],prevented the infection; also recorded: prevention of RSV2 and RSV14 infection
same,sphingosine concentration on the nasal epithelial cell surface / in the mucosa,[3],dose-dependent accumulation of sphingosine in the mucosa; also recorded: dose dependent increase in the local sphingosine concentration in the nasal mucosa
same,toxic effects on nasal epithelial cells (percentage of dead cells),[4],no toxic effects on epithelial cells of the nose; also recorded: no toxic side effects
same,infection with RV2 in vivo (percentage of dead Hela cells),[5],prevented; also recorded: prevents infection by RSV2
same,infection of human epithelial cells by RV2,[6],abrogates infection of human epithelial cells; also recorded: prevents infection of freshly isolated human nasal epithelial cells
same,infection of human epithelial cells by RV14,[7],abrogates infection of human epithelial cells; also recorded: prevents infection of freshly isolated human nasal epithelial cells
same,infection of human nasal epithelial cells with pp-VSV-SARS-CoV-2 spike (eGFP positive cells),[8],prevented infection; also recorded: prevents infection of freshly isolated human nasal endothelial cells by SARS-CoV-2
same,interaction of the receptor-binding domain of spike protein with ACE2,[9],abolished the interaction of the receptor-binding domain of spike protein with ACE2
same,binding of intact pp-VSV-SARS-CoV-2 to recombinant ACE2,[10],abrogated binding of intact pp-VSV-SARS-CoV-2 to recombinant ACE2; also recorded: prevents binding of SARS-CoV-2 spike protein to the ACE2 receptor
same,binding of pp-VSV-SARS-CoV-2 to the cell surface,[11],prevented binding of pp-VSV-SARS-CoV-2 to the cell surface
